Measurements from ChEMBL document CHEMBL1201862, “PubChem BioAssay data set” (2004).
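Each compound was tested at five concentrations against cells in 96-well plates for 48 hours. Abbreviation: GI50, concentration required for 50% inhibition of growth.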 Active and inactive are the calls of the source. Rule as the data show it: active = GI50 up to about 1.1 µM and inactive = higher.

How the values were obtained:
Test in all cases: NCI anticancer screen, dose series, 48 h
A549 = tested on: A549
EKVX = tested on: EKVX
HOP-92 = tested on: HOP-92
HT-29 = tested on: HT-29
KM12 = tested on: KM12
MDA-MB-231 = tested on: MDA-MB-231
MDA-N = tested on: MDA-N
MOLT-4 = tested on: MOLT-4
Malme-3M = tested on: Malme-3M
NCI-H23 = tested on: NCI-H23
SK-MEL-28 = tested on: SK-MEL-28
SK-MEL-2 = tested on: SK-MEL-2
SN12C = tested on: SN12C
SNB-75 = tested on: SNB-75
SR = tested on: SR
CAKI-1 = tested on: CAKI-1
SF-539 = tested on: SF-539
T47D = tested on: T47D
HL-60 = tested on: HL-60

Measured: GI50

CCC(C)C(NC(=O)c1cccc2c(=O)c3ccccc3[nH]c12)C(=O)O (configuration not stated)
inactive: A549 98.9 µM | EKVX > 100 µM | HOP-92 94.4 µM | HT-29 > 100 µM | KM12 61.1 µM | MDA-MB-231 > 100 µM | MDA-N > 100 µM | MOLT-4 82.6 µM | Malme-3M > 100 µM | NCI-H23 > 100 µM | SK-MEL-28 > 100 µM | SK-MEL-2 > 100 µM | SN12C > 100 µM | SNB-75 78.7 µM | SR > 100 µM

CCOC(=O)c1c(SC(=O)/C=C/c2ccccc2)n(-c2ccccc2)c(=S)n(-c2ccccc2)c1=O
inactive: A549 > 100 µM | CAKI-1 > 100 µM | EKVX > 100 µM | HOP-92 > 100 µM | HT-29 > 100 µM | KM12 > 100 µM | MDA-MB-231 > 100 µM | MOLT-4 > 100 µM | Malme-3M > 100 µM | NCI-H23 > 100 µM | SF-539 > 100 µM | SK-MEL-28 > 100 µM | SN12C > 100 µM | SNB-75 > 100 µM | SR > 100 µM | T47D > 100 µM

O=[N+]([O-])c1cccc([N+](=O)[O-])c1Cl
inactive: A549 14.9 µM | CAKI-1 3.18 µM | EKVX 20.3 µM | HL-60 2.82 µM | HOP-92 18.8 µM | HT-29 19.9 µM | KM12 11.1 µM | MDA-MB-231 21.2 µM | MOLT-4 3.56 µM | Malme-3M 17.4 µM | NCI-H23 16.6 µM | SF-539 17.9 µM | SK-MEL-28 21.1 µM | SK-MEL-2 21.8 µM | SN12C 23.4 µM | SNB-75 30.3 µM | SR 3.93 µM | T47D 2.96 µM

Cc1ccc(-c2c(C#N)c(-c3ccccc3)c(C#N)c(=O)n2NS(=O)(=O)c2ccc(C)cc2)cc1
inactive: A549 34.4 µM | CAKI-1 48.4 µM | EKVX 72.1 µM | HOP-92 20.8 µM | HT-29 50.6 µM | KM12 38.5 µM | MDA-MB-231 > 100 µM | MOLT-4 12.9 µM | Malme-3M > 100 µM | SF-539 13.3 µM | SK-MEL-28 52.2 µM | SK-MEL-2 35.7 µM | SN12C 61.2 µM | SNB-75 > 100 µM

COC(=O)C1(C(=O)OC)CC(=O)c2c(OC(=O)c3cccc(OC)c3C#N)ccc(OC(=O)c3cccc(OC)c3C#N)c2C1
inactive: A549 > 100 µM | CAKI-1 > 100 µM | EKVX > 100 µM | HL-60 > 100 µM | HOP-92 83.8 µM | HT-29 > 100 µM | KM12 > 100 µM | MDA-MB-231 > 100 µM | MDA-N > 100 µM | MOLT-4 > 100 µM | Malme-3M > 100 µM | NCI-H23 > 100 µM | SF-539 > 100 µM | SK-MEL-28 > 100 µM | SN12C > 100 µM | SNB-75 > 100 µM | SR 26.9 µM

C[n+]1c(-c2ccc(/C=N/Nc3ccnc(N/N=C/c4ccc(-c5cn6ccsc6[n+]5C)cc4)n3)cc2)cn2ccsc21
inactive: A549 28.6 µM | CAKI-1 18.5 µM | EKVX 18.8 µM | HOP-92 31.5 µM | HT-29 16.9 µM | KM12 22.1 µM | MDA-MB-231 32.7 µM | MDA-N 3.94 µM | MOLT-4 17.8 µM | Malme-3M 29.9 µM | NCI-H23 22.9 µM | SF-539 27 µM | SK-MEL-2 29.8 µM | SN12C 31.5 µM | SNB-75 20 µM | SR 11.3 µM

Cc1cc(OCc2nnc3sc(NC(=O)c4ccccc4)nn23)ccc1Cl
inactive: A549 33.1 µM | CAKI-1 18 µM | EKVX 31.1 µM | HL-60 34.6 µM | HOP-92 17.4 µM | HT-29 38.4 µM | KM12 21.5 µM | MDA-MB-231 42.4 µM | MOLT-4 55.5 µM | Malme-3M 21.4 µM | NCI-H23 30.7 µM | SF-539 > 100 µM | SK-MEL-28 67.5 µM | SK-MEL-2 28.8 µM | SN12C 30.8 µM | T47D 44.4 µM

C=C/C(C)=C\CC1[C@](C)(O)CC[C@H]2C(C)(C)C(=O)CC[C@]12C (some centres not stated)
inactive: A549 62.7 µM | CAKI-1 > 100 µM | EKVX > 100 µM | HL-60 12.1 µM | HOP-92 > 100 µM | HT-29 47.6 µM | KM12 85.5 µM | MDA-MB-231 > 100 µM | MDA-N 96.4 µM | MOLT-4 19.1 µM | Malme-3M > 100 µM | NCI-H23 40.6 µM | SF-539 > 100 µM | SK-MEL-28 > 100 µM | SK-MEL-2 > 100 µM | SN12C > 100 µM | SNB-75 > 100 µM | SR 24.6 µM

COc1ccc(/N=N/c2c(O)ccc3ccccc23)cc1
inactive: A549 17.9 µM | CAKI-1 > 100 µM | EKVX 14.3 µM | HL-60 > 100 µM | HOP-92 19.6 µM | HT-29 17 µM | KM12 12.1 µM | MDA-MB-231 24.5 µM | MDA-N > 100 µM | MOLT-4 > 100 µM | Malme-3M 14.1 µM | NCI-H23 32.9 µM | SK-MEL-28 > 100 µM | SK-MEL-2 35.6 µM | SN12C > 100 µM | SNB-75 16.4 µM | SR 14.8 µM
